≈ marks a conversion by molar mass, not a printed value.
Tests used:
[1] = tested on: Enterococcus spp.; assay: minimum inhibitory concentration (MIC)
Procedure: (§1)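 Broth microdilution MIC (Sensititre BOPO7F bovine plate, CLSI methods) of 19 antimicrobials against field isolates of P. multocida, M. haemolytica, H. somni (deep nasopharyngeal swabs) and E. coli, Enterococcus spp. (rectal swabs) from weaned dairy heifers. Incubation 16-24 h at 35 C. MIC is the lowest concentration preventing visible growth. Values with <= or > lie at the tested range limits. Trimethoprim-sulfamethoxazole is given as the trimethoprim component of a 1:19 mixture.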

[2] = tested on: Histophilus somni; assay: minimum inhibitory concentration (MIC)
Procedure: as §1

CC[C@H]1OC(=O)C[C@@H](O)[C@H](C)[C@@H](O[C@@H]2O[C@H](C)[C@@H](O)[C@H](N(C)C)[C@H]2O)[C@@H](CCN2C[C@H](C)C[C@H](C)C2)C[C@@H](C)C(=O)/C=C/C(C)=C/[C@@H]1CO[C@@H]1O[C@H](C)[C@@H](O)[C@@H](OC)[C@H]1OC [Tilmicosin]
minimum inhibitory concentration [mg/L]
Conditions	[1]	[2]
isolate (source animal id): 2	8 (≈ 9.2 µM)	–
isolate (source animal id): 3	–	8 (≈ 9.2 µM)
isolate (source animal id): 4	–	≤ 2
isolate (source animal id): 7	–	≤ 2
isolate (source animal id): 14	–	≤ 2
isolate (source animal id): 15	–	8 (≈ 9.2 µM)
isolate (source animal id): 17	–	≤ 2
isolate (source animal id): 18	–	4 (≈ 4.6 µM)
isolate (source animal id): 20	–	≤ 2
isolate (source animal id): 23	–	4 (≈ 4.6 µM)
isolate (source animal id): 35	> 16	–
isolate (source animal id): 42	8 (≈ 9.2 µM)	–
isolate (source animal id): 44	8 (≈ 9.2 µM)	–
isolate (source animal id): 45	–	8 (≈ 9.2 µM)
isolate (source animal id): 53	–	8 (≈ 9.2 µM)
isolate (source animal id): 79	8 (≈ 9.2 µM)	–
isolate (source animal id): 83	–	4 (≈ 4.6 µM)
isolate (source animal id): 88	8 (≈ 9.2 µM)	4 (≈ 4.6 µM)
isolate (source animal id): 91	8 (≈ 9.2 µM)	–
isolate (source animal id): 92	16 (≈ 18.4 µM)	8 (≈ 9.2 µM)
isolate (source animal id): 93	–	4 (≈ 4.6 µM)
isolate (source animal id): 99	–	4 (≈ 4.6 µM)
isolate (source animal id): 100	–	8 (≈ 9.2 µM)
isolate (source animal id): 105	–	4 (≈ 4.6 µM)
isolate (source animal id): 107	–	4 (≈ 4.6 µM)
isolate (source animal id): 108	–	4 (≈ 4.6 µM)
isolate (source animal id): 109	–	8 (≈ 9.2 µM)
isolate (source animal id): 110	–	8 (≈ 9.2 µM)
isolate (source animal id): 111	8 (≈ 9.2 µM)	–
isolate (source animal id): 117	–	4 (≈ 4.6 µM)
isolate (source animal id): 121	–	4 (≈ 4.6 µM)
isolate (source animal id): 122	> 16	–
isolate (source animal id): 123	8 (≈ 9.2 µM)	8 (≈ 9.2 µM)
isolate (source animal id): 124	–	4 (≈ 4.6 µM)
isolate (source animal id): 127	–	4 (≈ 4.6 µM)
isolate (source animal id): 128	–	4 (≈ 4.6 µM)
isolate (source animal id): 130	–	8 (≈ 9.2 µM)
isolate (source animal id): 132	–	4 (≈ 4.6 µM)
isolate (source animal id): 133	8 (≈ 9.2 µM)	–
isolate (source animal id): 135	–	4 (≈ 4.6 µM)
isolate (source animal id): 140	–	4 (≈ 4.6 µM)
isolate (source animal id): 141	–	4 (≈ 4.6 µM)
isolate (source animal id): 142	–	> 16
isolate (source animal id): 144	–	8 (≈ 9.2 µM)
isolate (source animal id): 146	–	8 (≈ 9.2 µM)
isolate (source animal id): 147	–	> 16
isolate (source animal id): 151	–	4 (≈ 4.6 µM)
isolate (source animal id): 153	–	16 (≈ 18.4 µM)
isolate (source animal id): 154	–	> 16
isolate (source animal id): 156	–	> 16
isolate (source animal id): 157	–	16 (≈ 18.4 µM)
isolate (source animal id): 158	> 16	–
isolate (source animal id): 168	16 (≈ 18.4 µM)	–
isolate (source animal id): 169	16 (≈ 18.4 µM)	–
isolate (source animal id): 171	16 (≈ 18.4 µM)	–
isolate (source animal id): 175	> 16	–
isolate (source animal id): 176	–	16 (≈ 18.4 µM)
isolate (source animal id): 177	16 (≈ 18.4 µM)	–
isolate (source animal id): 181	8 (≈ 9.2 µM)	–
isolate (source animal id): 182	16 (≈ 18.4 µM)	–
isolate (source animal id): 183	8 (≈ 9.2 µM)	8 (≈ 9.2 µM)
isolate (source animal id): 186	–	8 (≈ 9.2 µM)
isolate (source animal id): 187	16 (≈ 18.4 µM)	–
isolate (source animal id): 190	8 (≈ 9.2 µM)	–
isolate (source animal id): 194	8 (≈ 9.2 µM)	–
isolate (source animal id): 195	8 (≈ 9.2 µM)	–
isolate (source animal id): 196	–	8 (≈ 9.2 µM)
isolate (source animal id): 197	8 (≈ 9.2 µM)	–
isolate (source animal id): 198	–	8 (≈ 9.2 µM)
isolate (source animal id): 200	–	8 (≈ 9.2 µM)
isolate (source animal id): 206	–	8 (≈ 9.2 µM)
isolate (source animal id): 208	–	8 (≈ 9.2 µM)
isolate (source animal id): 210	–	4 (≈ 4.6 µM)
isolate (source animal id): 211	8 (≈ 9.2 µM)	–
isolate (source animal id): 212	–	≤ 2
isolate (source animal id): 214	8 (≈ 9.2 µM)	–
isolate (source animal id): 215	–	8 (≈ 9.2 µM)
isolate (source animal id): 216	–	16 (≈ 18.4 µM)
isolate (source animal id): 218	–	8 (≈ 9.2 µM)
isolate (source animal id): 219	–	8 (≈ 9.2 µM)
isolate (source animal id): 222	8 (≈ 9.2 µM)	–
isolate (source animal id): 223	8 (≈ 9.2 µM)	–
isolate (source animal id): 224	–	8 (≈ 9.2 µM)
isolate (source animal id): 228	> 16	8 (≈ 9.2 µM)
isolate (source animal id): 230	> 16	16 (≈ 18.4 µM)
isolate (source animal id): 233	–	4 (≈ 4.6 µM)
isolate (source animal id): 235	> 16	–
isolate (source animal id): 236	8 (≈ 9.2 µM)	–
isolate (source animal id): 238	–	≤ 2
isolate (source animal id): 239	4 (≈ 4.6 µM)	8 (≈ 9.2 µM)
isolate (source animal id): 241	> 16	8 (≈ 9.2 µM)
isolate (source animal id): 242	–	8 (≈ 9.2 µM)
isolate (source animal id): 243	–	8 (≈ 9.2 µM)
isolate (source animal id): 244	16 (≈ 18.4 µM)	–
isolate (source animal id): 245	–	≤ 2
isolate (source animal id): 246	16 (≈ 18.4 µM)	8 (≈ 9.2 µM)
isolate (source animal id): 247	> 16	16 (≈ 18.4 µM)
isolate (source animal id): 248	–	≤ 2
isolate (source animal id): 250	16 (≈ 18.4 µM)	8 (≈ 9.2 µM)
isolate (source animal id): 251	–	8 (≈ 9.2 µM)
isolate (source animal id): 252	> 16	16 (≈ 18.4 µM)
isolate (source animal id): 254	–	8 (≈ 9.2 µM)
isolate (source animal id): 258	–	4 (≈ 4.6 µM)
isolate (source animal id): 259	–	4 (≈ 4.6 µM)
isolate (source animal id): 262	–	≤ 2
isolate (source animal id): 264	–	≤ 2
isolate (source animal id): 265	–	≤ 2
isolate (source animal id): 266	–	4 (≈ 4.6 µM)
isolate (source animal id): 267	–	4 (≈ 4.6 µM)
isolate (source animal id): 268	> 16	–
isolate (source animal id): 269	–	4 (≈ 4.6 µM)
isolate (source animal id): 271	–	4 (≈ 4.6 µM)
isolate (source animal id): 272	–	≤ 2
isolate (source animal id): 274	–	≤ 2
isolate (source animal id): 276	–	≤ 2
isolate (source animal id): 278	–	≤ 2
isolate (source animal id): 280	–	≤ 2
isolate (source animal id): 281	–	8 (≈ 9.2 µM)
isolate (source animal id): 282	8 (≈ 9.2 µM)	–
isolate (source animal id): 283	–	4 (≈ 4.6 µM)
isolate (source animal id): 285	> 16	–
isolate (source animal id): 288	–	8 (≈ 9.2 µM)
isolate (source animal id): 289	16 (≈ 18.4 µM)	–
isolate (source animal id): 290	8 (≈ 9.2 µM)	–
isolate (source animal id): 291	–	4 (≈ 4.6 µM)
isolate (source animal id): 292	–	8 (≈ 9.2 µM)
isolate (source animal id): 296	8 (≈ 9.2 µM)	4 (≈ 4.6 µM)
isolate (source animal id): 298	4 (≈ 4.6 µM)	–
isolate (source animal id): 301	8 (≈ 9.2 µM)	–
isolate (source animal id): 306	–	8 (≈ 9.2 µM)
isolate (source animal id): 310	> 16	–
isolate (source animal id): 320	8 (≈ 9.2 µM)	–
isolate (source animal id): 331	8 (≈ 9.2 µM)	–
isolate (source animal id): 333	8 (≈ 9.2 µM)	–
isolate (source animal id): 336	–	8 (≈ 9.2 µM)
isolate (source animal id): 337	–	8 (≈ 9.2 µM)
isolate (source animal id): 341	> 16	8 (≈ 9.2 µM)

Source: the supplement of paper PMC8612539
